# Measured values: PMC4965013, “Open Source Drug Discovery with the Malaria Box Compound Collection for Neglected Diseases and Beyond” (PLoS Pathogens, 2016)
# Assays:
# [1] = test system: P. falciparum 3D7 trophozoites; experiment: Metabolomic fingerprint profiling LC-MS; assay type: cell-based, Plasmodium falciparum; set-up: UDP-D-glucose / ADP-D-glucose: unit not given here; settings: for Acetyllysine / N-acetyl-L-ornithine / N-carbamoyl-L-aspartate / NADPH / dAMP / dCMP / dTDP / dTMP / dTTP / dihydroorotate / orotate / DLH / DLS/SDL/SID / PD / PEE / PVNF / 3-phosphoglycerate / ADP-D-glucose / ATP / CDP / D-sedoheptulose-1/7-phosphate / FAD / GMP / NAD+ / NADP+ / Octoluse Bisphosphate / Pyroglutamic acid / UDP-D-glucose / UDP-D-glucuronate / UDP-N-acetyl-glucosamine / UDP / UMP / UTP / a-ketoglutarate / citrate/isocitrate / cytidine / dATP / dGMP/AMP / fumarate / glucose-1/6-phosphate / glycerate / guanine / guanosine / hypoxanthine / indole / inosine / nicotinate / ornithine / phosphoenolpyruvate / pyruvate / ribose-phosphate / sarcosine/alanine / sn-glycerol-3-phosphate / succinate/methylmalonic acid / uridine / xanthosine: S2 Table Metabolomics; for Acetyllysine: metabolite Acetyllysine; for N-acetyl-L-ornithine: metabolite N-acetyl-L-ornithine; for N-carbamoyl-L-aspartate: metabolite N-carbamoyl-L-aspartate; for NADPH: metabolite NADPH; for dAMP: metabolite dAMP; for dCMP: metabolite dCMP; for dTDP: metabolite dTDP; for dTMP: metabolite dTMP; for dTTP: metabolite dTTP; for dihydroorotate: metabolite dihydroorotate; for orotate: metabolite orotate; for DLH: peptide DLH; for DLS/SDL/SID: peptide DLS/SDL/SID; for PD: peptide PD; for PEE: peptide PEE; for PVNF: peptide PVNF; for 3-phosphoglycerate: metabolite 3-phosphoglycerate; for ADP-D-glucose: metabolite ADP-D-glucose; for ATP: metabolite ATP; for CDP: metabolite CDP; for CDP / D-sedoheptulose-1/7-phosphate / GMP / Octoluse Bisphosphate / UDP / UMP / UTP / citrate/isocitrate / dGMP/AMP / fumarate / glucose-1/6-phosphate / glycerate / guanine / guanosine / inosine / pyruvate / sarcosine/alanine / succinate/methylmalonic acid / uridine / xanthosine: change in metabolite level after compound treatment; for D-sedoheptulose-1/7-phosphate: metabolite D-sedoheptulose-1/7-phosphate; for FAD: metabolite FAD; for GMP: metabolite GMP; for NAD+: metabolite NAD+; for NADP+: metabolite NADP+; for Octoluse Bisphosphate: metabolite Octoluse Bisphosphate; for Pyroglutamic acid: metabolite Pyroglutamic acid; for UDP-D-glucose: metabolite UDP-D-glucose; for UDP-D-glucuronate: metabolite UDP-D-glucuronate; for UDP-N-acetyl-glucosamine: metabolite UDP-N-acetyl-glucosamine; for UDP: metabolite UDP; for UMP: metabolite UMP; for UTP: metabolite UTP; for a-ketoglutarate: metabolite a-ketoglutarate; for citrate/isocitrate: metabolite citrate/isocitrate; for cytidine: metabolite cytidine; for dATP: metabolite dATP; for dGMP/AMP: metabolite dGMP/AMP; for fumarate: metabolite fumarate; for glucose-1/6-phosphate: metabolite glucose-1/6-phosphate; for glycerate: metabolite glycerate; for guanine: metabolite guanine; for guanosine: metabolite guanosine; for hypoxanthine: metabolite hypoxanthine; for indole: metabolite indole; for inosine: metabolite inosine; for 2_3-Diphosphoglyceric acid / 4-phosphopantothenate / 6-phospho-D-gluconate / FMN / IMP / Pyrophosphate / Sedoheptoluse bisphosphate / cyclic-AMP / glutathione disulfide / lactate / myo-inositol: metabolite level change after treatment; for nicotinate: metabolite nicotinate; for ornithine: metabolite ornithine; for phosphoenolpyruvate: metabolite phosphoenolpyruvate; for pyruvate: metabolite pyruvate; for ribose-phosphate: metabolite ribose-phosphate; for sarcosine/alanine: metabolite sarcosine/alanine; for sn-glycerol-3-phosphate: metabolite sn-glycerol-3-phosphate; for succinate/methylmalonic acid: metabolite succinate/methylmalonic acid; for uridine: metabolite uridine; for xanthosine: metabolite xanthosine
# P. falciparum = experiment: EC50 listed in S2 Table Metabolomics (used to set the concentration tested); assay type: cell-based; settings: Plasmodium falciparum; EC50 used for Factor_XEC50 in metabolomics; read-out: EC50_nM
structure (smiles),measurement,setting,value
CCOC(=O)c1cnc2c(C)cc(C)cc2c1Nc1ccc(OC)c(OC)c1 [MMV008294],Acetyllysine,[1],-0.3425
same,N-acetyl-L-ornithine,[1],-0.09501
same,N-carbamoyl-L-aspartate,[1],2.682
same,NADPH,[1],1.75
same,dAMP,[1],0.2089
same,dCMP,[1],-0.6198
same,dTDP,[1],-0.4672
same,dTMP,[1],-0.4876
same,dTTP,[1],-1.144
same,dihydroorotate,[1],3.3871
same,orotate,[1],-0.7416
same,DLH,[1],-0.5675
same,DLS/SDL/SID,[1],-0.4346
same,PD,[1],-0.1287
same,PEE,[1],-0.648
same,PVNF,[1],-0.7723
same,3-phosphoglycerate,[1],-0.683
same,ADP-D-glucose,[1],-0.352
same,ATP,[1],-0.07176
same,CDP,[1],-0.1705
same,D-sedoheptulose-1/7-phosphate,[1],-0.3446
same,FAD,[1],0.0322
same,GMP,[1],-0.1695
same,NAD+,[1],-0.3043
same,NADP+,[1],-0.3797
same,Octoluse Bisphosphate,[1],-0.4297
same,Pyroglutamic acid,[1],0.3043
same,UDP-D-glucose,[1],-0.27
same,UDP-D-glucuronate,[1],-0.2831
same,UDP-N-acetyl-glucosamine,[1],-0.5063
same,UDP,[1],-0.5787
same,UMP,[1],-1.283
same,UTP,[1],-1.136
same,a-ketoglutarate,[1],-0.236
same,citrate/isocitrate,[1],0.7822
same,cytidine,[1],0.0959
same,dATP,[1],1.0046
same,dGMP/AMP,[1],-0.5258
same,fumarate,[1],-0.9618
same,glucose-1/6-phosphate,[1],0.01885
same,glycerate,[1],0.4536
same,guanine,[1],0.3469
same,guanosine,[1],2.083
same,hypoxanthine,[1],0.2152
same,indole,[1],0.4569
same,inosine,[1],0.05445
same,2_3-Diphosphoglyceric acid,[1],-0.768
same,4-phosphopantothenate,[1],-0.7166
same,6-phospho-D-gluconate,[1],-0.1153
same,FMN,[1],0.06908
same,IMP,[1],-0.2706
same,Pyrophosphate,[1],-0.2511
same,Sedoheptoluse bisphosphate,[1],-0.4052
same,cyclic-AMP,[1],-0.1956
same,glutathione disulfide,[1],-0.2281
same,lactate,[1],0.2967
same,myo-inositol,[1],0.2424
same,nicotinate,[1],0.04647
same,ornithine,[1],-0.4808
same,phosphoenolpyruvate,[1],-0.6158
same,pyruvate,[1],0.09912
same,ribose-phosphate,[1],-0.7165
same,sarcosine/alanine,[1],-0.5269
same,sn-glycerol-3-phosphate,[1],-0.7886
same,succinate/methylmalonic acid,[1],0.008672
same,uridine,[1],-0.03724
same,xanthosine,[1],0.1462
same,EC50,P. falciparum,0.232 µM
Cc1cc(Nc2ccc(C)c(Cl)c2)n2nc(C(F)(F)F)nc2n1 [MMV665874],Acetyllysine,[1],-0.4022
same,N-acetyl-L-ornithine,[1],-0.2526
same,N-carbamoyl-L-aspartate,[1],4.028
same,NADPH,[1],0.1752
same,dAMP,[1],-0.05231
same,dCMP,[1],-0.05814
same,dTDP,[1],-1.343
same,dTMP,[1],-1.0853
same,dTTP,[1],-1.254
same,dihydroorotate,[1],5.397
same,orotate,[1],0.2167
same,DLH,[1],-0.1943
same,DLS/SDL/SID,[1],-0.1199
same,PD,[1],-0.005549
same,PEE,[1],-0.4065
same,PVNF,[1],-0.2835
same,3-phosphoglycerate,[1],0.03547
same,ADP-D-glucose,[1],0.02005
same,ATP,[1],0.1462
same,CDP,[1],-0.8722
same,D-sedoheptulose-1/7-phosphate,[1],-0.2118
same,FAD,[1],-0.01762
same,GMP,[1],0.4662
same,NAD+,[1],-0.1
same,NADP+,[1],-0.1197
same,Octoluse Bisphosphate,[1],0.03302
same,Pyroglutamic acid,[1],0.08116
same,UDP-D-glucose,[1],-0.2063
same,UDP-D-glucuronate,[1],-0.109
same,UDP-N-acetyl-glucosamine,[1],-0.4453
same,UDP,[1],-1.835
same,UMP,[1],-1.099
same,UTP,[1],-1.702
same,a-ketoglutarate,[1],-0.1317
same,citrate/isocitrate,[1],-0.1582
same,cytidine,[1],-0.03725
same,dATP,[1],0.3143
same,dGMP/AMP,[1],0.07446
same,fumarate,[1],-0.3892
same,glucose-1/6-phosphate,[1],0.2173
same,glycerate,[1],0.07615
same,guanine,[1],0.251
same,guanosine,[1],0.7775
same,hypoxanthine,[1],-0.1073
same,indole,[1],-0.01704
same,inosine,[1],-0.02522
same,2_3-Diphosphoglyceric acid,[1],0.1914
same,4-phosphopantothenate,[1],-0.3242
same,6-phospho-D-gluconate,[1],0.01162
same,FMN,[1],-0.4401
same,IMP,[1],-0.2175
same,Pyrophosphate,[1],0.07871
same,Sedoheptoluse bisphosphate,[1],0.06707
same,cyclic-AMP,[1],-0.1282
same,glutathione disulfide,[1],-0.03556
same,lactate,[1],-0.043
same,myo-inositol,[1],-0.09181
same,nicotinate,[1],-0.01808
same,ornithine,[1],0.04606
same,phosphoenolpyruvate,[1],0.07297
same,pyruvate,[1],0.2233
same,ribose-phosphate,[1],0.2644
same,sarcosine/alanine,[1],0.1358
same,sn-glycerol-3-phosphate,[1],0.2659
same,succinate/methylmalonic acid,[1],-1.091
same,uridine,[1],-0.8568
same,xanthosine,[1],-0.03941
same,EC50,P. falciparum,0.00671 µM
